Test results: US10711006B2, “Selective Bruton's tyrosine kinase inhibitor and use thereof” (HANGZHOU HERTZ PHARMACEUTICAL CO., LTD., priority 2016, dated 2020)

Columns and labels:
[1] = test system: human mantle cell lymphoma (MINO); experiment: In-vitro tumor cell proliferation inhibition (CCK-8), MINO; conditions: 72 h, read-out: Tumor cell proliferation inhibitory activity (IC50, μM) MINO
[2] = test system: human diffuse large B lymphoma (TMD-8); experiment: In-vitro tumor cell proliferation inhibition (CCK-8), TMD-8; conditions: TMD8, 72 h, read-out: Tumor cell proliferation inhibitory activity (IC50, nM) TMD-8
Procedure: (§1) The in-vitro antitumor activity assay was carried out on the synthesized compound by using different solid tumors and leukemia cell lines:
(§2) Cell lines: human lung cancer cell (A549), human mantle cell lymphoma (MINO), diffuse giant B-cell lymphoma (OCI-LY10), and human diffuse large B lymphoma (TMD-8).
(§3) Preparation method of the drug: the drug was dissolved in DMSO to make a 10 mM stock solution, and then the stock solution was diluted in a certain ratio to obtain 5 different concentrations (test concentration 100×). In-vitro culture of tumor cells:
(§4) The tumor cells A549, MINO, OCI-LY10, and TMD-8 were seeded in a 96-well plate at 4000 cells/200 μL/well and then incubated overnight at 37° C. in a 5% CO2 cell culture incubator. 2 μL of the compound was added to each well to final concentrations of 50 μM, 10 μM, 2 μM, 0.4 μM, and 0.08 μM and then incubated for 72 hours at 37° C. in a 5% CO2 cell incubator, with DMSO (2%) as a control group. […] Wells loaded with the corresponding amount of cell culture fluid the and CCK-8 solution but no cells were considered as blank controls. The absorbance (OD value) was measured at 450 nm using a microplate reader, and the obtained data was used to calculate IC50.

[3] = test system: human lung cancer cell (A549); experiment: In-vitro tumor cell proliferation inhibition (CCK-8), A549; conditions: A549, 72 h, read-out: Tumor cell proliferation inhibitory activity (IC50, μM) A549
Procedure: as §1, §2, §3, §4

[4] = test system: diffuse giant B-cell lymphoma (OCI-LY10); experiment: In-vitro tumor cell proliferation inhibition (CCK-8), OCI-LY10; conditions: Homo sapiens, OCI-Ly10, 72 h, read-out: Tumor cell proliferation inhibitory activity (IC50, nM) OCI-LY10
[5] = target: hERG potassium channel (Homo sapiens (Human), UniProt Q12809); experiment: hERG potassium channel inhibitory activity, manual patch clamp in CHO cells; type: cell-based; conditions: CHO cells stably expressing hERG, whole-cell patch clamp
Chain of hERG potassium channel (Q12809 whole entry): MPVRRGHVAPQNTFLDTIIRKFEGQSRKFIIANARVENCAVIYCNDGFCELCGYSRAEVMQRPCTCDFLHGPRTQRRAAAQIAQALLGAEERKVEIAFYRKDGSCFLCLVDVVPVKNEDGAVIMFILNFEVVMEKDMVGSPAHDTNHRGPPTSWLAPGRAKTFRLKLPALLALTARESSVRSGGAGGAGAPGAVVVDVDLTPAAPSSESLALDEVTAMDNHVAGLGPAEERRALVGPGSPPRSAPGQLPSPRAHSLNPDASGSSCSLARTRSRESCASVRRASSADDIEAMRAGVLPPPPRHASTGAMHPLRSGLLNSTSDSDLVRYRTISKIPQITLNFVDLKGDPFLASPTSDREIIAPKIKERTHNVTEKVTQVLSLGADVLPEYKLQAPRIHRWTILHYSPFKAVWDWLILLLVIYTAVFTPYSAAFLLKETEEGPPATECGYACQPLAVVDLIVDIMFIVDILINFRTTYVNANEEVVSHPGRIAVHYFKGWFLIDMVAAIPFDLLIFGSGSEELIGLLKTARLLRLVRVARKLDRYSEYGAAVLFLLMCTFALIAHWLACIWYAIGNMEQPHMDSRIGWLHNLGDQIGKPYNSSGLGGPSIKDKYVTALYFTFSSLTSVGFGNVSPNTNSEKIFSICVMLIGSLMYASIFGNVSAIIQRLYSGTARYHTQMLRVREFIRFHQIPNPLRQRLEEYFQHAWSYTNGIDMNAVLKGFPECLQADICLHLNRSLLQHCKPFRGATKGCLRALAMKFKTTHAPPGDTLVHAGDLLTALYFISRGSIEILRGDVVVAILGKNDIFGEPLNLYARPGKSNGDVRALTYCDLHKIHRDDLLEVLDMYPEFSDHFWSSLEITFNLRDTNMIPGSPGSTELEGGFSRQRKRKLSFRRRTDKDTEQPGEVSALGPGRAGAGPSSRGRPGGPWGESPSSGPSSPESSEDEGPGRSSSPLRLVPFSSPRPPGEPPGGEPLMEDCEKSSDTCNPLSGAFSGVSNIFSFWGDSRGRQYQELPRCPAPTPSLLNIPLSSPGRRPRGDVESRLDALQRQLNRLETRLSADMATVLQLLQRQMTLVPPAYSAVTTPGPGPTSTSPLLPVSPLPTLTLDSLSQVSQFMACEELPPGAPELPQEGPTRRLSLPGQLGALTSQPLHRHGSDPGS
Procedure: The cells used in this experiment were CHO cell lines transfected with HergCdna and stably expressing Herg channels (supplied by Sophion Bioscience, Denmark). The cells were cultured in a medium containing the following components (all from Invitrogen): Ham's F12 medium, 10% (v/v) inactivated fetal bovine serum, 100 μg/ml hygromycin B, 100 μg/ml Geneticin. […] 24 to 48 hours before an electrophysiological experiment, CHO Herg cells were transferred to circular slides placed in the culture dishes and grow with the same culture liquid under the same culture conditions as above. The density of CHO Herg cells on each circular slide was required to reach such a value that most cells were independent and stand alone.
2. Treatment and Dilution of a Compound
Before the test, the compound was first diluted with DMSO at gradient to make stock solutions with concentrations of 10, 3, 1, 0.3 and 0.1 Mm and the stock solutions were then diluted with extracellular fluid to a final Mm test concentration. Except that the DMSO concentration in the 30 Mm compound test solution was 0.3%, the final concentration of DMSO in each of the compound solutions with other concentrations was 0.1%. The test concentration of a positive control Cisapridewas 0.1 Mm. All compound solutions were conventionally sonicated and shaken for 5 to 10 minutes to ensure complete dissolution of the compound.
3. Electrophysiological Recording System and Data Analysis
This experiment uses a manual patch clamp system (HEKA EPC-10 signal amplifier and digital conversion system, purchased from HEKA Electronics, Germany) for the recording of whole cell currents. The circular slides with CHO Herg cells growing on the surfaces were placed in an electrophysiological recording slot under an inverted microscope. The extracellular fluid was used for continuous perfusion in the recording slot (approximately lml per minute). The experimental procedure uses a conventional whole-cell patch clamp current recording technique. Unless otherwise stated, the experiment was carried out at regular room temperature ([…]). The cells were clamped at a voltage of −80 Mv. The cell clamp voltage was depolarized to +20 Mv to activate the Herg potassium channel, and 5 seconds later, it was clamped to −50 Mv to eliminate inactivation and generate tail current. The peak of the tail current was used as the value of the Herg current. After the hERG potassium current recorded in the above step was stabilized under the continuous extracellular fluid perfusion in the recording slot, the drug to be tested can be superimposed to the perfusion until the inhibitory effect of the drug on the hERG current reaches a steady state. Generally, the criterion for determine whether or not the stable state was reached was that the recent three consecutive current recording lines were coincident. After the steady state was reached, extracellular fluid perfusion was carried out for flushing until the hERG current returns to the magnitude before the drug was added. One cell may be used for testing one or more drugs, or multiple concentrations of the same drug, and flushing with extracellular fluid was carried out between tests of different drugs. Cisapride (purchased from Sigma) was used in the experiment as a positive control to ensure that the cells used were of normal quality. The test data was analyzed by data analysis software provided by HEKA Patchmaster, Microsoft Excel and Graphpad Prism.

[6] = target: BTK Kinase (Homo sapiens (Human), UniProt Q06187); experiment: In-vitro Btk kinase inhibitory activity assay; type: biochemical
Chain of BTK Kinase (Q06187 whole entry): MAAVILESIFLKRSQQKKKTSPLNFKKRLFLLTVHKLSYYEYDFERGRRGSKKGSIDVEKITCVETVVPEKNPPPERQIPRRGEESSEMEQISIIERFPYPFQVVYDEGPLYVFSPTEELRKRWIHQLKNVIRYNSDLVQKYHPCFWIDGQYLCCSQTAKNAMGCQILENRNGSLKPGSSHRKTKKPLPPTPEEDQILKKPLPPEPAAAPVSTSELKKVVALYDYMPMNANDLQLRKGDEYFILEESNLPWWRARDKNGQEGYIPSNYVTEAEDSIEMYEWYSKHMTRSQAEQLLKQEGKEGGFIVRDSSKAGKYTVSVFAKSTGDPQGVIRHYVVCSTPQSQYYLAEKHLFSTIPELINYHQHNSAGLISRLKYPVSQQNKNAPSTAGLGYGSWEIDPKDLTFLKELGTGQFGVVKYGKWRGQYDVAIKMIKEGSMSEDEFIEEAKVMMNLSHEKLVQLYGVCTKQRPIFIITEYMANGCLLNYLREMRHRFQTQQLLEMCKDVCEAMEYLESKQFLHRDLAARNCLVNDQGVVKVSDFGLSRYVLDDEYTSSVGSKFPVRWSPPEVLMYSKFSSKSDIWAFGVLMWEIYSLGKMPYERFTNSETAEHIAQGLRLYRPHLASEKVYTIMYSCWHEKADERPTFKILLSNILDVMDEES
Procedure: In-Vitro Btk Kinase Inhibitory Activity Assay for Compounds of the Present Invention:
10 μL of the 50× drug stock solution was added to a 96-well plate and then 90 μL of a 1× Kinase Buffer was added and the 96-well plate was shaken for 10 minutes on a shaker. From each well of the 96-well plate, 5 μL of the drug solution was taken and then transferred to a 384-well plate which was provided with 2 duplicate wells.
Preparation of a 2.5× Kinase Buffer: an enzyme was added to the 1× kinase base buffer.
Prepare a 2.5× oligopeptide solution: FAM-labeled oligopeptide and ATP were added to the 1× kinase base buffer.
10 μL of the 2.5× Kinase Buffer was added to the 384-well plate loaded with 5 μL of the drug solution and incubation was then carried out for 10 minutes at room temperature. 10 μL of the 2.5× oligopeptide solution was added to the 384-well plate and incubation was then carried out for 1 hour at 28° C. The reaction was stopped by adding 25 μL of a stop buffer. The readings were recorded and the inhibition rate of the compound on the enzyme was calculated. The IC50 of BTK kinase was calculated by fitting.

[7] = test system: Mino subcutaneous xenograft tumor; experiment: In-vivo pharmacodynamic study on Mino subcutaneous xenograft tumor models; conditions: CB17 SCID mice, intragastric, twice a day
Procedure: In CB17 SCID mice, 0.2 mL of cell suspension containing 5×10^6 Mino cells was subcutaneously inoculated into the right back of each mouse, and when the mean tumor volume reaches approximately 139.94 mm3 (day 26 after inoculation), group administration was started (intragastric administration, twice a day, 14 days in total). Animals were monitored daily for health and mortality, and tumor diameters were measured twice a week using vernier calipers to see if tumor growth could be inhibited, delayed, or cured.

[8] = test system: arthritis induced by anti-collagen antibodies and lipopolysaccharides; experiment: Rheumatoid arthritis model induced by anti-collagen antibodies and lipopolysaccharides; type: in vivo, Balb/c mice
Procedure: In Balb/c mice, arthritis was induced by administration of anti-collagen antibodies and lipopolysaccharides (Nandakumar et al., Am. J. Pathol. 2003, 163: 1827-1837).
The specific method was as follows: On Day 0, female Balb/c mice were intravenously injected with anti-type II collagen ChemicomAb mixture in a dose of 100 mg/kg, and on Day 1, lipopolysaccharide was intraperitoneally injected in a dose of 1.25 mg/kg. From Day 2 to Day 12, Compounds 15a, 17a, 24a and 24e were orally administered once a day in a dose of 10 mg/kg. On Day 13 after abdominal anesthesia, […] of blood was taken from the femoral artery and centrifuged at 3000 r/min for 20 minutes, serum was taken to detect IL-1β with a test kit, and related tissue samples were observed.

[9] = Oral pharmacokinetic experiment in SD rats; type: in vivo; conditions: mean n = 3
Procedure: SD rats were used as experimental animals and were subjected to intragastric administration in a dose of 10 mg/kg and tail-vein intravenous injection in a dose of 2 mg/kg. The tail-vein blood sampling time points in the intragastric administration were 0.17, 0.33, 0.5, 1, 1.5, 2, 4, 6, 8, 12, and 24 hours; the blood sampling time points in the intravenous administration were 0.05, 0.1, 0.17, 0.5, 1, 2, 4, 6, 8, 12, and 24 hours. 0.3 ml of whole blood was taken, and 0.1 ml of plasma after centrifugation was taken and analyzed by LC-MS.

[10] = rat, plasma, oral (intragastric) 10 mg/kg

Row | Structure (SMILES) | IC50 [1] | IC50 [2] | IC50 [3] | IC50 [4] | IC50 [5] | IC50 [6] | TGI*(14 days) (%) calculated on the basis of tumor volume [7] | TGI**(14 days) (%) calculated on the basis of tumor weight [7] | level of IL-1β in serum (in words) ([8]; 10 mg/kg orally once a day, versus model group) | IL-1β ([8]; serum on Day 13, 10 mg/kg orally once a day Day 2 to Day 12) | inflammatory cell infiltration, synovial hyperplasia, inflammatory granulation tissue formation, necrotic tissue ([8]; tissue samples after treatment, versus model group) | AUC0-C(ng/h/mL) ([9]; oral (intragastric) 10 mg/kg) | AUC0-t (ng/h/mL) ([9]; oral (intragastric) 10 mg/kg) | bioavailability ([9]; rat, plasma, oral 10 mg/kg vs intravenous 2 mg/kg) | Cmax [9, 10] | Tmax [9, 10] | half-life [9, 10]
1 | C=CC(=O)N1CC[C@@H](n2nc(-c3ccc(Oc4ccccc4)nc3)c3c(N)ncnc32)C1 [Compound 23a, (R)-1-(3-(4-amino-3-(6-phenoxypyridin-3-yl)-1H-pyrazolo[3,4-d]pyrimidin-1-yl)pyrrolidin-1-yl)prop-2-en-1-one] | 9.19 µM | 28.3 nM | 2.83 µM | 6.91 nM | 18.2 µM | 4.4 nM | – | – | – | – | – | – | – | – | – | – | –
2 | C=CC(=O)N1CCC[C@@H](n2nc(-c3ccc(Oc4ccccc4)cn3)c3c(N)ncnc32)C1 [Compound 19, (R)-1-(3-(4-amino-3-(5-phenoxypyridin-2-yl)-1H-pyrazolo[3,4-d]pyrimidin-1-yl)piperidin-1-yl)prop-2-en-1-one] | 7.12 µM | 10.2 nM | 4.52 µM | 13.6 nM | 10.6 µM | 5.3 nM | – | – | – | – | – | – | – | – | – | – | –
3 | CC#CC(=O)N1CC[C@@H](n2nc(-c3ccc(Oc4ccccc4)nc3)c3c(N)ncnc32)C1 [Compound 25a, (R)-1-(3-(4-amino-3-(6-phenoxypyridin-3-yl)-1H-pyrazolo[3,4-d]pyrimidin-1-yl)pyrrolidin-1-yl)but-2-yn-1-one] | 6.5 µM | 5.18 nM | 5.3 µM | 5.13 nM | 13.6 µM | 25.1 nM | – | – | – | – | – | – | – | – | – | – | –
4 | CC/C=C/C(=O)N1CCC[C@@H](n2nc(-c3ccc(Oc4ccccc4)nc3)c3c(N)ncnc32)C1 [Compound 20a, (R)-1-(3-(4-amino-3-(6-phenoxypyridin-3-yl)-1H-pyrazolo[3,4-d]pyrimidin-1-yl)piperidin-1-yl) pent-2-en-1-one] | 8.92 µM | 15.2 nM | 7.7 µM | 12.5 nM | 14.8 µM | 18.6 nM | – | – | – | – | – | – | – | – | – | – | –
5 | C=CC(=O)N1CC[C@@H](n2nc(-c3ccc(Oc4cccc(F)c4F)nc3F)c3c(N)ncnc32)C1 [Compound 24e, (R)-1-(3-(4-amino-3-(6-(2,3-difluorophenoxy)-2-fluoropyridin-3-yl)-1H-pyrazolo[3,4-d]pyrimidin-1-yl)pyrrolidin-1-yl)prop-2-en-1-one] | 8.98 µM | 7.13 nM | 1.93 µM | 4.02 nM | – | 1.8 nM | 68.04% | 62.16% | significantly reduce | 20.45 ± 5.1 ng/L | significantly improved | 1620 ng·h/mL | 1600 ng·h/mL | 46.1% | 1440 ng/mL | 15 min | 214 min
6 | C=CC(=O)N1CCC[C@@H](n2nc(-c3ccc(Oc4cccc(F)c4F)nc3F)c3c(N)ncnc32)C1 [Compound 17i, (R)-1-(3-(4-amino-3-(6-(2,3-difluorophenoxy)-2-fluoropyridin-3-yl)-1H-pyrazolo[3,4-d]pyrimidin-1-yl)piperidin-1-yl)prop-2-en-1-one] | 7.65 µM | 3.8 nM | 1.02 µM | 2.04 nM | – | 1.2 nM | – | – | – | – | – | – | – | – | – | – | –
7 | C=CC(=O)N1CCC[C@@H](n2nc(-c3ccc(Oc4ccc(C)cc4)nc3)c3c(N)ncnc32)C1 [Compound 15i] | 8.35 µM | 4.99 nM | 8.21 µM | 3.19 nM | 13.5 µM | 6.5 nM | – | – | – | – | – | – | – | – | – | – | –
8 | C=CC(=O)N1CCC[C@@H](n2nc(-c3ccc(Oc4cccc(F)c4)nc3)c3c(N)ncnc32)C1 [Compound 15c, (R)-1-(3-(4-amino-3-(6-(3-fluorophenoxypyridine)-3-yl)-1H-pyrazolo[3,4-d]pyrimidin-1-yl)piperidin-1-yl)prop-2-en-1-one] | 6.23 µM | 4.12 nM | 2.06 µM | 2.23 nM | – | 8.6 nM | – | – | – | – | – | – | – | – | – | – | –
9 | C=CC(=O)N1CCC[C@@H](n2nc(-c3ccc(Oc4ccc(F)cc4)nc3)c3c(N)ncnc32)C1 [Compound 15b, (R)-1-(3-(4-amino-3-(6-(4-fluorophenoxypyridine)-3-yl)-1H-pyrazolo[3,4-d]pyrimidin-1-yl)piperidin-1-yl)prop-2-en-1-one] | 8.19 µM | 2.37 nM | 2.88 µM | 3.58 nM | 11.6 µM | 9.5 nM | – | – | – | – | – | – | – | – | – | – | –
